In the NIST ThermoML archive (doi:10.1021/je049572f):

Test: xn = mol fraction of the nth substance listed
Details: 101.33 kPa, Liquid

C=Cc1ccccc1 [styrene] + CCCCCCCC
Details	mass density [kg/m3]	viscosity [mPa·s]
293.15 K, x1 = 0.1085	719.52	0.537
293.15 K, x1 = 0.2151	736.18	0.537
293.15 K, x1 = 0.3202	753.7	0.541
293.15 K, x1 = 0.4223	772.01	0.551
293.15 K, x1 = 0.523	791.51	0.565
293.15 K, x1 = 0.622	812.07	0.593
293.15 K, x1 = 0.7189	833.64	0.619
293.15 K, x1 = 0.8145	856.59	0.649
293.15 K, x1 = 0.9081	880.84	0.694
293.15 K, x1 = 1	906.29	0.749
298.15 K, x1 = 0.1085	715.45	0.502
298.15 K, x1 = 0.2151	732.06	0.508
298.15 K, x1 = 0.3202	749.53	0.51
298.15 K, x1 = 0.4223	767.81	0.518
298.15 K, x1 = 0.523	787.27	0.533
298.15 K, x1 = 0.622	807.78	0.56
298.15 K, x1 = 0.7189	829.3	0.576
298.15 K, x1 = 0.8145	852.22	0.608
298.15 K, x1 = 0.9081	876.43	0.647
298.15 K, x1 = 1	901.86	0.699
303.15 K, x1 = 0.1085	711.38	0.475
303.15 K, x1 = 0.2151	727.94	0.477
303.15 K, x1 = 0.3202	745.38	0.48
303.15 K, x1 = 0.4223	763.63	0.489
303.15 K, x1 = 0.523	783.03	0.503
303.15 K, x1 = 0.622	803.5	0.527
303.15 K, x1 = 0.7189	824.98	0.544
303.15 K, x1 = 0.8145	847.87	0.571
303.15 K, x1 = 0.9081	872.03	0.609
303.15 K, x1 = 1	897.45	0.654
313.15 K, x1 = 0.1085	703.13	0.423
313.15 K, x1 = 0.2151	719.6	0.427
313.15 K, x1 = 0.3202	737	0.431
313.15 K, x1 = 0.4223	755.16	0.439
313.15 K, x1 = 0.523	774.46	0.451
313.15 K, x1 = 0.622	794.86	0.48
313.15 K, x1 = 0.7189	816.28	0.486
313.15 K, x1 = 0.8145	839.09	0.511
313.15 K, x1 = 0.9081	863.15	0.541
313.15 K, x1 = 1	888.53	0.577
323.15 K, x1 = 0.1085	694.84	0.381
323.15 K, x1 = 0.2151	711.23	0.385
323.15 K, x1 = 0.3202	728.58	0.388
323.15 K, x1 = 0.4223	746.66	0.396
323.15 K, x1 = 0.523	765.88	0.406
323.15 K, x1 = 0.622	786.22	0.427
323.15 K, x1 = 0.7189	807.56	0.437
323.15 K, x1 = 0.8145	830.31	0.46
323.15 K, x1 = 0.9081	854.31	0.484
323.15 K, x1 = 1	879.62	0.513
333.15 K, x1 = 0.1085	686.43	0.351
333.15 K, x1 = 0.2151	702.74	0.351
333.15 K, x1 = 0.3202	720.06	0.352
333.15 K, x1 = 0.4223	738.07	0.359
333.15 K, x1 = 0.523	757.21	0.368
333.15 K, x1 = 0.622	777.49	0.387
333.15 K, x1 = 0.7189	798.77	0.395
333.15 K, x1 = 0.8145	821.46	0.413
333.15 K, x1 = 0.9081	845.37	0.438
333.15 K, x1 = 1	870.64	0.462
343.15 K, x1 = 0.1085	677.99	0.321
343.15 K, x1 = 0.2151	694.24	0.325
343.15 K, x1 = 0.3202	711.51	0.322
343.15 K, x1 = 0.4223	729.46	0.328
343.15 K, x1 = 0.523	748.55	0.337
343.15 K, x1 = 0.622	768.75	0.355
343.15 K, x1 = 0.7189	789.97	0.362
343.15 K, x1 = 0.8145	812.63	0.376
343.15 K, x1 = 0.9081	836.5	0.398
343.15 K, x1 = 1	861.72	0.419
353.15 K, x1 = 0.1085	669.39	0.293
353.15 K, x1 = 0.2151	685.6	0.295
353.15 K, x1 = 0.3202	702.81	0.295
353.15 K, x1 = 0.4223	720.71	0.301
353.15 K, x1 = 0.523	739.76	0.308
353.15 K, x1 = 0.622	759.93	0.322
353.15 K, x1 = 0.7189	781.11	0.333
353.15 K, x1 = 0.8145	803.68	0.349
353.15 K, x1 = 0.9081	827.51	0.362
353.15 K, x1 = 1	852.68	0.381
363.15 K, x1 = 0.1085	660.98	0.27
363.15 K, x1 = 0.2151	677.15	0.268
363.15 K, x1 = 0.3202	694.32	0.273
363.15 K, x1 = 0.4223	712.19	0.277
363.15 K, x1 = 0.523	731.2	0.285
363.15 K, x1 = 0.622	751.34	0.294
363.15 K, x1 = 0.7189	772.48	0.304
363.15 K, x1 = 0.8145	795.04	0.318
363.15 K, x1 = 0.9081	818.82	0.333
363.15 K, x1 = 1	843.99	0.349
